Each structure is given as a SMILES string. Counter-ions that a name gives are not always drawn. Like-named read-outs stand apart in the source and are kept apart here.

The values that follow come from article PMC9758846, “Dinuclear and mononuclear metal(II) polypyridyl complexes against drug-sensitive and drug-resistant Plasmodium falciparum and their mode of action” (Malaria Journal, 2022).

For data set [1], the system named is Plasmodium falciparum IPC5202 (Pf5202). Kind of data set: In vitro anti-malarial activity using SYBR Green I nucleic acid dye. The data set is classed as cell-based. The note with it: for IC50: read-out: IC50 of Pf5202; for Drop in efficacy/potency towards Pf5202 relative to Pf3D7: ratio of IC50 values. As to the method: (§1) The drug-sensitive strain of P. falciparum 3D7 (Pf3D7) was obtained from the Department of Science, Monash University, Malaysia and cultured as previously described. The artemisinin-resistant strain of P. falciparum IPC5202 (Pf5202) was obtained from BEI Resources and cultured as mentioned in the product sheet. Both strains were maintained in sealed flask at 37 °C in a humidified atmosphere of 5% O2, 5% CO2 and 90% N2. All buffer stock solutions for biological assays were autoclaved at 121 °C for 15 min.
(§2) Previously reported anti-malarial assay was used with slight modification using 1% parasitaemia (ring-stage) and 5% haematocrit treated with test compounds at increasing concentration and incubated for 72 h at 37 °C [21–23]. After the incubation, the assay was terminated by freeze/thaw cycle (− 80 °C overnight before thawing for 2 h) before the addition of lysis buffer containing SYBR Green I dye into each well and mixed thoroughly using the belly dancer for 30 min in the dark. Chloroquine diphosphate salt and artemisinin were used as standard drugs. The fluorescence signal was quantified at 485 nm excitation wavelength and 528 nm emission wavelength. IC50 values of each test compound was determined from a dose response curve by non-linear regression analysis.

The test system of data set [2] is Plasmodium falciparum 3D7 (Pf3D7). The data set is described as above. The data set is classed as cell-based. The note with it: read-out: IC50 of Pf3D7. The procedure: as §1, §2
Data set [3] is described as follows: PNDA assay of •OH radicals from reaction with H2O2. The note with it: for Concentration of •OH radical: 30 µM compound with excess H2O2; for Generation of ·OH radicals (in words): equimolar test compound with excess H2O2. The procedure:
A previously reported spectrometric assay using PNDA was used to quantify the amount of reactive oxygen species (ROS), viz. •OH radicals, produced by the reaction of metal(II) complexes with hydrogen peroxide in borate buffer at pH 7.5 [24–26]. The percentage of PNDA bleaching and the concentration of •OH produced were determined.

The subject of data set [4] is B+ blood red blood cells (RBC). In words: In vitro haemolytic assay. The class given is cell-based, human. The note with it: 1 µM; 72 h; B+ blood. The procedure: Fresh B+ blood was washed with RPMI1640 medium containing of 30 µg/mL gentamicin (Gibco) and centrifuged at 1000 xg for 10 min three times. The percentage of haemolysis was determined spectroscopically using 5% haematocrit containing test compound at increasing concentration and incubated for 72 h at 37 °C [19, 20]. Untreated blood acted as negative control while blood treated with sterile distilled water acted as positive control (for 100% haemolysis).

Data set [5] concerns the target Pf5202 20S proteasome caspase-like (C-L) site (Plasmodium falciparum, UniProt Q8I0U7). Kind of data set: 20S proteasome inhibition assay using parasite lysate. The data set is classed as biochemical. The note with it: Suc-LLE-AMC, 30 min. As to the method: (§3) To harvest P. falciparum parasites, intraerythrocytic Pf3D7 and Pf5202 were collected in trophozoite and early schizont stages. Red blood cells were lysed in 0.15% (w/v) saponin lysis buffer for 10 min at 37 °C. After lysis, the parasite pellet was washed once with PBS buffer by centrifuging at 1600 rpm for 5 min. Saponin lysis buffer was added once again to remove all the red blood cells for 10 min at 37 °C, followed by washing with PBS twice and immediately used or kept at − 80 °C. To prepare parasite lysates for proteasome purification, parasite pellet was resuspended with 100 µl of pre-cooled Pierce™ RIPA buffer. A mild protein extraction method was used to prepare parasite extracts. The resuspended parasites were passed 20 times through a needle with a diameter of 0.4 mm in a syringe on ice to lyse the parasite. After 15 min centrifugation at 13,000 xg at 4 °C, the supernatant was removed. Protein concentration was determined by the Bradford assay. The activities of 3 proteolytic sites were determined by fluorescence assay using fluorogenic peptide substrates (Suc-LLVY-AMC for chymotrypsin-like, Boc-LRR-AMC for trypsin-like and Suc-LLE-AMC for caspase-like) Proteasome activities were determined by monitoring the substrate hydrolysis for 30 min at 37 °C with 340 nm excitation and 465 nm emission wavelength. Activity of each proteolytic site were calculated, and the IC50 values were determined from the non-linear regression analysis. VR23 proteasome inhibitor was used as positive control.

Data set [6] has as its target Pf3D7 20S proteasome chymotrypsin-like (CT-L) site (Plasmodium falciparum, UniProt Q8IJT1). Described as above. The class given is biochemical. The settings on record: Suc-LLVY-AMC, 30 min. As to the method: as §3
For data set [7], the target named is Pf5202 20S proteasome trypsin-like (T-L) site (Plasmodium falciparum, UniProt Q8I6T3). The description is as above. The class given is biochemical. The note with it: for IC50: parasite lysate, Boc-LRR-AMC, 30 min. The procedure: as §3
In data set [8] the target is Pf3D7 20S proteasome caspase-like (C-L) site (Plasmodium falciparum, UniProt Q8I0U7). The data set is described as above. The class given is biochemical. The settings on record: Suc-LLE-AMC, 30 min. The procedure: as §3
The target of data set [9] is Pf5202 20S proteasome chymotrypsin-like (CT-L) site (Plasmodium falciparum, UniProt Q8IJT1). Described as above. The class given is biochemical. The note with it: Suc-LLVY-AMC, 30 min. As to the method:
as §3

In data set [10] the target is Pf3D7 20S proteasome trypsin-like (T-L) site (Plasmodium falciparum, UniProt Q8I6T3). The description is as above. The class given is biochemical. The settings on record: Boc-LRR-AMC, 30 min. The procedure: as §3
The next data set concerns Pf5202. Kind of data set: Intracellular ROS level using DCFH-DA. The class given is cell-based, Plasmodium falciparum. The procedure:
(§4) After incubation, packed cells were washed with phosphate buffer saline (PBS) solution. […] The data was expressed as fold change between amount of ROS produced by treated P. falciparum against untreated P. falciparum. Normalization was done with the percentage of parasite viability obtained at each condition. Hydrogen peroxide was used as positive control.

In the next data set the test system is Pf3D7. Kind of data set: Intracellular ROS level using DCFH-DA. The class given is cell-based, Plasmodium falciparum. The procedure:
as §4

Setting [11] is: 72 h incubation, listed as copper(II) nitrate.
Setting [12] is: Plasmodium falciparum, 72 h incubation.
Where [13] appears, read: Plasmodium falciparum, 3D7, 72 h incubation.
Setting [14] is: positive control, 24 h, 1000 µM.
The mark [15] stands for this setting: positive control, 48 h, 1000 µM.
The mark [16] stands for this setting: positive control, 72 h, 1000 µM.

Pf5202 20S proteasome trypsin-like (T-L) site, sequence (Q8I6T3 entry or part of it): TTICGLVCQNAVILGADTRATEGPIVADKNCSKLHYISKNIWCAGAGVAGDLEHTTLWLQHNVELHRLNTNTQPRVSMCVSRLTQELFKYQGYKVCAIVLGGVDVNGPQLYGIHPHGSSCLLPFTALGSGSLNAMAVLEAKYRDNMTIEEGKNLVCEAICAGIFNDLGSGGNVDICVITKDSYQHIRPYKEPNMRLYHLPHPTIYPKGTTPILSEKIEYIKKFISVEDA
Pf3D7 20S proteasome trypsin-like (T-L) site, sequence (Q8I6T3 entry or part of it): as above
Pf3D7 20S proteasome caspase-like (C-L) site, sequence (Q8I6T3 entry or part of it): as above
Pf3D7 20S proteasome caspase-like (C-L) site, sequence (Q8I0U7 entry or part of it): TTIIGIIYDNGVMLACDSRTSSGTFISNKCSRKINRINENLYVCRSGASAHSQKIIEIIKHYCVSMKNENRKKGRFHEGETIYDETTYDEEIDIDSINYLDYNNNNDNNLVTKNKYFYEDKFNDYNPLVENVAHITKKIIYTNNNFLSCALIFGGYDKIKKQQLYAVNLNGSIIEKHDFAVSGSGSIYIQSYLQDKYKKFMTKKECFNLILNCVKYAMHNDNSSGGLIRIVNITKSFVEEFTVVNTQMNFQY
Pf5202 20S proteasome caspase-like (C-L) site, sequence (Q8I0U7 entry or part of it): as above
Pf5202 20S proteasome caspase-like (C-L) site, sequence (Q8I6T3 entry or part of it, further chain): as the sequence (Q8I6T3 entry or part of it) above
Pf5202 20S proteasome chymotrypsin-like (CT-L) site, sequence (Q8IJT1 entry or part of it): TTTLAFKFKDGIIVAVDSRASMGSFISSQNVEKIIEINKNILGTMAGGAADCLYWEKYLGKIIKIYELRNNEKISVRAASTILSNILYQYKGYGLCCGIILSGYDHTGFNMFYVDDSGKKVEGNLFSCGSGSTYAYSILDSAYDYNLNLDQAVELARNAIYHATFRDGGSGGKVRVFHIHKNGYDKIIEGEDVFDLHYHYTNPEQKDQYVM
Pf3D7 20S proteasome chymotrypsin-like (CT-L) site, sequence (Q8IJT1 entry or part of it): as above

Take `O.O.O.O=[N+]([O-])[O-].O=[N+]([O-])[O-].[Cu+2]` [Cu(NO3)2·3H2O, Copper(II) nitrate trihydrate, reference compound]: the IC50 in data set [1] (setting [11]) is roughly 49 µM; in data set [1] (72 h incubation), 49.4 ± 2.3 µM; in [2] (setting [11]), roughly 46 µM; in [2] (72 h incubation), 46.1 ± 4.29 µM. Further, the “Concentration of •OH radical” value in data set [3] (2 h) is 14.59 ± 2.39 µM; in data set [3] (4 h), 19.27 ± 2.36 µM; in [3] (24 h), 36.29 ± 1.80 µM; in data set [3] (48 h) it was 33.20 ± 1.62 µM; in data set [3] (72 h), 29.82 ± 1.60 µM. For the same compound, the “Percentage of haemolysis (haemolytic index, HI)” value in data set [4] is 3%.

As to `O.O.O.O.O.O.O=[N+]([O-])[O-].O=[N+]([O-])[O-].[Zn+2]` [Zn(NO3)2·6H2O, Zinc(II) nitrate hexahydrate], the IC50 in data set [1] (72 h incubation) and in data set [2] (72 h incubation) was greater than 100 µM throughout. Also, in [3], the “Generation of ·OH radicals (in words)” value was “did not generate any ·OH radicals”.

Regarding `O=[N+]([O-])c1ccc(S(=O)(=O)N2CCN(c3ccnc4cc(Cl)ccc34)CC2)c([N+](=O)[O-])c1` [VR23, reference compound], the IC50 was greater than 5 µM in [5]; greater than 5 µM in [6]; 0.86 ± 0.09 µM in [7]; greater than 5 µM in data set [8]; greater than 5 µM in data set [9]; 0.78 ± 0.11 µM in data set [10].

With `C[C@@H]1CC[C@H]2[C@@H](C)C(=O)O[C@@H]3O[C@@]4(C)CC[C@@H]1[C@]32OO4` [ART, Artemisinin], the figures for the IC50 in [1] (setting [12]) and in data set [2] (setting [13]) were greater than 100 µM and 0.04 ± 0.01 µM, respectively. For the same compound, the “Drop in efficacy/potency towards Pf5202 relative to Pf3D7” value in data set [1] was “more than 3000 ×”.

Regarding `OO` [Complex H2O2, Hydrogen peroxide, reference compound], the “fold change in ROS” value in the data set on Pf5202 (positive control, 24 h, 8 µM) came out at 1.10 ± 0.04 fold; in the data set on Pf5202 (positive control, 24 h, 40 µM), 1.16 ± 0.13 fold; in the data set with Pf5202 (positive control, 24 h, 200 µM) it was 1.08 ± 0.18 fold; with Pf5202 (setting [14]), 1.15 ± 0.22 fold; in the data set with Pf5202 (positive control, 48 h, 8 µM) it was 1.78 ± 0.16 fold; in the data set on Pf5202 (positive control, 48 h, 40 µM), 1.54 ± 0.28 fold. The “fold change in ROS” value was 1.41 ± 0.16 fold in the data set on Pf5202 (positive control, 48 h, 200 µM); 1.68 ± 0.28 fold in the data set on Pf5202 (setting [15]); 1.82 ± 0.15 fold in the data set with Pf5202 (positive control, 72 h, 8 µM); 1.17 ± 0.36 fold in the data set on Pf5202 (positive control, 72 h, 40 µM); 2.06 ± 0.25 fold in the data set with Pf5202 (positive control, 72 h, 200 µM); 3.71 ± 0.14 fold with Pf5202 (setting [16]). In addition, the “fold change in ROS” value with Pf3D7 (positive control, 24 h, 8 µM) stood at 0.90 ± 0.37 fold; in the data set on Pf3D7 (positive control, 24 h, 40 µM), 1.34 ± 0.67 fold; with Pf3D7 (positive control, 24 h, 200 µM), 1.28 ± 0.62 fold; with Pf3D7 (setting [14]) it was 1.77 ± 0.85 fold; in the data set with Pf3D7 (positive control, 48 h, 8 µM), 2.97 ± 0.57 fold; in the data set on Pf3D7 (positive control, 48 h, 40 µM), 3.55 ± 0.9 fold. The “fold change in ROS” value was 4.61 ± 0.15 fold with Pf3D7 (positive control, 48 h, 200 µM); 5.75 ± 0.76 fold in the data set on Pf3D7 (setting [15]); 0.25 ± 0.08 fold with Pf3D7 (positive control, 72 h, 8 µM); 0.34 ± 0.12 fold in the data set on Pf3D7 (positive control, 72 h, 40 µM); 0.49 ± 0.22 fold in the data set on Pf3D7 (positive control, 72 h, 200 µM); 1.00 ± 0.06 fold in the data set on Pf3D7 (setting [16]).

Consider `c1cc(-c2ccncc2)ccn1` [4,4′-bipy, 4,4′-bipyridine], for which the IC50 in [1] (setting [12]) and in data set [2] (setting [13]) was greater than 100 µM throughout. Further, the “Generation of ·OH radicals (in words)” value in data set [3] is on record as “did not generate any ·OH radicals”.

Regarding `CCN(CC)CCCC(C)Nc1ccnc2cc(Cl)ccc12` (stereo not drawn) [CQ, Chloroquine diphosphate salt], the concentration for half-maximal inhibition (IC50) in data set [1] (Plasmodium falciparum, 72 h) was greater than 100 µM; in data set [2] (Plasmodium falciparum, 3D7, 72 h), 0.03 ± 0.01 µM. In data set [1], the “Drop in efficacy/potency towards Pf5202 relative to Pf3D7” value is listed as “more than 3000 ×”.

Consider `c1cnc2c(c1)ccc1cccnc12` [phen, 1,10-phenanthroline, reference compound], for which the IC50 in data set [1] (setting [12]) is greater than 100 µM; in [2] (setting [13]), 4.27 ± 0.05 µM; in data set [7], 1.79 ± 0.66 µM; in [8], greater than 25 µM; in [10] it was 4.47 ± 0.6 µM. The “Concentration of •OH radical” value in data set [3] (24 h) is 0.15 ± 0.07 µM; in data set [3] (48 h), 0.36 ± 0.17 µM; in data set [3] (72 h), 0.30 ± 0.23 µM. Moreover, in data set [3], the “Generation of ·OH radicals (in words)” value is “did not generate any ·OH radicals”. Also, the “fold change in ROS” value was determined as 1.06 ± 0.06 fold in the data set with Pf5202 (24 h, 0.2 µM); 1.08 ± 0.09 fold in the data set with Pf5202 (24 h, 1.0 µM); 0.91 ± 0.05 fold in the data set on Pf5202 (24 h, 5.0 µM); 0.80 ± 0.04 fold in the data set with Pf5202 (24 h, 25.0 µM); 1.78 ± 0.78 fold with Pf5202 (48 h, 0.2 µM); 1.31 ± 0.21 fold with Pf5202 (48 h, 1.0 µM). In addition, the “fold change in ROS” value is 1.40 ± 0.13 fold in the data set on Pf5202 (48 h, 5.0 µM); 1.32 ± 0.31 fold in the data set on Pf5202 (48 h, 25.0 µM); 1.35 ± 0.71 fold with Pf5202 (72 h, 0.2 µM); 1.17 ± 0.44 fold with Pf5202 (72 h, 1.0 µM); 1.08 ± 0.51 fold in the data set on Pf5202 (72 h, 5.0 µM); 1.21 ± 1.25 fold in the data set on Pf5202 (72 h, 25.0 µM). Also, the “fold change in ROS” value amounted to 3.10 ± 0.98 fold with Pf3D7 (48 h, 0.2 µM); 2.91 ± 0.05 fold with Pf3D7 (48 h, 1.0 µM); 4.47 ± 0.71 fold in the data set on Pf3D7 (48 h, 5.0 µM); 6.09 ± 0.91 fold in the data set with Pf3D7 (48 h, 25.0 µM). The “Factor by which T-L site of Pf5202 is inhibited better than that of Pf3D7” value in data set [7] (ratio of T-L IC50 values) is given as “about 2.5 ×”.

One may read the IC50 as the concentration that gives 50% inhibition.
